What was measured:
HCT-116 cell line = assay: Inhibition of cell growth, tetrazolium salt (MTT) assay; type: cell-based; conditions: Homo sapiens, MTT; for inhibition at 0.175 µM: HCT-116, HCT-116 cells, compound at 0.175 uM
Procedure, shortened: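 MTT colorimetric viability: three-to-five-day compound exposure in 0.5% (v/v) DMSO at 37° C, MTT 0.2 mg/mL for the last 4 h, A540 compared with vehicle-treated cells.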

CDK2/Cyclin A = CDK2/Cyclin A (Homo sapiens, UniProt P24941); assay: Inhibition of CDK2/Cyclin A Retinoblastoma Kinase Activity; type: biochemical; conditions: for inhibition at 0.05 µM: read-out: % inhibition of CDK2 (@ 0.05 μM), compound at 0.05 μM
Procedure, shortened: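 Radiometric filter-binding readout of phosphate transfer to an Rb substrate fragment by purified CDK2/truncated cyclin A at 10 or 19 nM. Run at pH 7.4 with 25 μM ATP, 30 °C, 60–75 min, linear rates; background without enzyme subtracted, Ki from competitive-inhibition models.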

Row | Compound | inhibition at 0.05 µM (CDK2/Cyclin A) | IC50 (HCT-116 cell line; HCT-116, 120 h, first HCT-116 column (c4), three to five days, read-out: HCT-116 IC50) | Ki (CDK2/Cyclin A; apparent Ki, CDK2/proteolyzed cyclin A, Rb fragment substrate, 25 μM ATP) | inhibition at 0.175 µM (HCT-116 cell line)
1 | CN1CCCN(CCCS(=O)(=O)N2CCC(Nc3nc(N)c(C(=O)c4c(F)cccc4F)s3)CC2)CC1 [Example V30] | 78% | – | – | 8%
2 | COC(=O)CNCCCS(=O)(=O)N1CCC(Nc2nc(N)c(C(=O)c3c(F)cccc3F)s2)CC1 [Example V50] | 81% | – | – | 0%
3 | Nc1nc(NC2CCN(S(=O)(=O)CCCNCc3ccncc3)CC2)sc1C(=O)c1c(F)cccc1F [Example V23] | 87% | – | – | 24%
4 | Cc1cccc(CNCCCS(=O)(=O)N2CCC(Nc3nc(N)c(C(=O)c4c(F)cccc4F)s3)CC2)c1 [Example V79] | 93% | – | – | 76%
5 | NC(=O)[C@@H]1CCCN1CCCS(=O)(=O)N1CCC(Nc2nc(N)c(C(=O)c3c(F)cccc3F)s2)CC1 [Example V87] | 80% | – | – | 3%
6 | CC(C)OCCCNCCCS(=O)(=O)N1CCC(Nc2nc(N)c(C(=O)c3c(F)cccc3F)s2)CC1 [Example V96] | 84% | – | – | 10%
7 | Cc1cccc(NCCCS(=O)(=O)N2CCC(Nc3nc(N)c(C(=O)c4c(F)cccc4F)s3)CC2)n1 [Example V62] | 91% | – | – | 0%
8 | Cc1ccccc1CNCCCS(=O)(=O)N1CCC(Nc2nc(N)c(C(=O)c3c(F)cccc3F)s2)CC1 [Example V27] | 93% | – | – | 86%
9 | CCCCCNCCCS(=O)(=O)N1CCC(Nc2nc(N)c(C(=O)c3c(F)cccc3F)s2)CC1 [Example V89] | 85% | – | – | 42%
10 | Nc1nc(NC2CCN(S(=O)(=O)CCCNCCc3ccccn3)CC2)sc1C(=O)c1c(F)cccc1F [Example V8] | 81% | – | – | 18%
11 | CC(C)NCCCS(=O)(=O)N1CCC(Nc2nc(N)c(C(=O)c3c(F)cccc3F)s2)CC1 [Example V93] | 84% | – | – | 11%
12 | Nc1nc(NC2CCN(S(=O)(=O)CCCNCCc3ccncc3)CC2)sc1C(=O)c1c(F)cccc1F [Example V94] | 87% | – | – | 0%
13 | CCCNCCCS(=O)(=O)N1CCC(Nc2nc(N)c(C(=O)c3c(F)cccc3F)s2)CC1 [Example V56] | 83% | – | – | 19%
14 | COCCNCCCS(=O)(=O)N1CCC(Nc2nc(N)c(C(=O)c3c(F)cccc3F)s2)CC1 [Example V67] | 87% | – | – | 21%
15 | COCCCNCCCS(=O)(=O)N1CCC(Nc2nc(N)c(C(=O)c3c(F)cccc3F)s2)CC1 [Example V40] | 80% | – | – | 0%
16 | CN(CCC#N)CCCS(=O)(=O)N1CCC(Nc2nc(N)c(C(=O)c3c(F)cccc3F)s2)CC1 [Example V66] | 82% | – | – | 10%
17 | Nc1nc(NC2CCN(S(=O)(=O)CCCN3CCCC(CO)C3)CC2)sc1C(=O)c1c(F)cccc1F (centres unmarked) [Example V36] | 50% | – | – | 8%
18 | CCN1CCN(CCCS(=O)(=O)N2CCC(Nc3nc(N)c(C(=O)c4c(F)cccc4F)s3)CC2)CC1 [Example V59] | 72% | – | – | 7%
19 | Nc1nc(NC2CCN(S(=O)(=O)CCCNC3CCCCC3)CC2)sc1C(=O)c1c(F)cccc1F [Example V72] | 90% | – | – | 14%
20 | CN(C)C1CCN(CCCS(=O)(=O)N2CCC(Nc3nc(N)c(C(=O)c4c(F)cccc4F)s3)CC2)CC1 [Example V22] | 67% | – | – | 13%
21 | Nc1nc(NC2CCN(S(=O)(=O)CCCNCCC3=CCCCC3)CC2)sc1C(=O)c1c(F)cccc1F [Example V49] | 91% | – | – | 38%
22 | Nc1nc(NC2CCN(S(=O)(=O)CCCN[C@H]3CC[C@H](O)CC3)CC2)sc1C(=O)c1c(F)cccc1F [Example V39] | 84% | – | – | 0%
23 | Nc1nc(NC2CCN(S(=O)(=O)CCCN[C@@H]3CONC3=O)CC2)sc1C(=O)c1c(F)cccc1F [Example V21] | 86% | – | – | 10%

Now from value to molecule, other results behind:

Row | inhibition at 0.05 µM (CDK2/Cyclin A) | IC50 (HCT-116 cell line; HCT-116, 120 h, first HCT-116 column (c4), three to five days, read-out: HCT-116 IC50) | Ki (CDK2/Cyclin A; apparent Ki, CDK2/proteolyzed cyclin A, Rb fragment substrate, 25 μM ATP) | Compound | inhibition at 0.175 µM (HCT-116 cell line)
24 | 79% | – | – | NC(=O)CCNCCCS(=O)(=O)N1CCC(Nc2nc(N)c(C(=O)c3c(F)cccc3F)s2)CC1 [Example V122] | 32%
25 | 76% | – | – | COC(=O)CN(C)CCCS(=O)(=O)N1CCC(Nc2nc(N)c(C(=O)c3c(F)cccc3F)s2)CC1 [Example V136] | 9%
26 | 75% | – | – | CC(C)N1CCN(CCCS(=O)(=O)N2CCC(Nc3nc(N)c(C(=O)c4c(F)cccc4F)s3)CC2)CC1 [Example V115] | 9%
27 | 80% | – | – | CN(CCCS(=O)(=O)N1CCC(Nc2nc(N)c(C(=O)c3c(F)cccc3F)s2)CC1)CC(O)CO (centres unmarked) [Example V124] | 9%
28 | 76% | – | – | Cc1ccc(CNCCCS(=O)(=O)N2CCC(Nc3nc(N)c(C(=O)c4c(F)cccc4F)s3)CC2)o1 [Example V123] | 5%
29 | 80% | – | – | CC(C)(C)c1cc(NCCCS(=O)(=O)N2CCC(Nc3nc(N)c(C(=O)c4c(F)cccc4F)s3)CC2)no1 [Example V117] | 0%
30 | 85% | – | – | Cc1ccnc(NCCCS(=O)(=O)N2CCC(Nc3nc(N)c(C(=O)c4c(F)cccc4F)s3)CC2)c1 [Example V109] | 0%
31 | 79% | – | – | COC(=O)[C@@H]1CCCN1CCCS(=O)(=O)N1CCC(Nc2nc(N)c(C(=O)c3c(F)cccc3F)s2)CC1 [Example V139] | 0%
32 | 86% | – | – | CCc1ccnc(NCCCS(=O)(=O)N2CCC(Nc3nc(N)c(C(=O)c4c(F)cccc4F)s3)CC2)c1 [Example V111] | 5%
33 | 79% | – | – | CCc1cccc(NCCCS(=O)(=O)N2CCC(Nc3nc(N)c(C(=O)c4c(F)cccc4F)s3)CC2)n1 [Example V113] | 19%
34 | 88% | – | – | Nc1nc(NC2CCN(S(=O)(=O)CCCNC3CCSCC3)CC2)sc1C(=O)c1c(F)cccc1F [Example V161] | 2%
35 | 92% | – | – | Nc1cccc(CNCCCS(=O)(=O)N2CCC(Nc3nc(N)c(C(=O)c4c(F)cccc4F)s3)CC2)c1 [Example V149] | 0%
36 | 86% | – | – | Nc1nc(NC2CCN(S(=O)(=O)CCCN3CCSCC3)CC2)sc1C(=O)c1c(F)cccc1F [Example V104] | 42%
37 | 77% | – | – | Nc1nc(NC2CCN(S(=O)(=O)CCCNc3ccon3)CC2)sc1C(=O)c1c(F)cccc1F [Example V116] | 0%
38 | 80% | – | – | Nc1nc(NC2CCN(S(=O)(=O)CCCNc3ccc4cccc(O)c4n3)CC2)sc1C(=O)c1c(F)cccc1F [Example V142] | 0%
39 | 83% | – | – | CN(CCO)CCCS(=O)(=O)N1CCC(Nc2nc(N)c(C(=O)c3c(F)cccc3F)s2)CC1 [Example V148] | 2%
40 | – | 90 nM | 4 nM | Cc1cccc(CNCCCS(=O)(=O)N2CCC(Nc3nc(N)c(C(=O)c4c(F)cccc4F)s3)CC2)c1 [Example V180, (4-Amino-2-{[1-({3-[(3-methylbenzyl)amino]propyl}sulfonyl)-4-piperidinyl]amino}-1,3-thiazol-5-yl)(2,6-difluorophenyl)methanone.] | –
